Data set [1] can be described thus: Polymorphic stability at up to 100% relative humidity at room temperature. The data set is classed as physicochemical.
Data set [2] can be described thus: Hygroscopicity of the crystalline form. In kind it is physicochemical. Conditions: solid state form.

Our source for the time polymorphically stable and hygroscopicity values is patent US12637459B2, “Solid state forms of Lorecivivint” (TAPI CZECH INDUSTRIES S.R.O., priority 2020, dated 2026).

Each structure is given as a SMILES string.

For the compound `CC(C)CC(=O)Nc1cncc(-c2ccc3[nH]nc(-c4nc5c(-c6cccc(F)c6)cncc5[nH]4)c3c2)c1` [Form Q, N-[5-[3-[7-(3-fluorophenyl)-3H-imidazo[4,5-c]pyridin-2-yl]-1H-indazol-5-yl]pyridin-3-yl]-3-methylbutanamide], the time polymorphically stable in data set [1] is “at least 7 days”. The hygroscopicity entry in data set [2] was “non-hygroscopic”.
